How the values were obtained:
KS cells = test: Gal1 expression and secretion by KS cells (hypoxia/normoxia); assay type: cell-based, human; details: for IκB-α degradation: hypoxia; for hypoxia-driven Gal1 expression and secretion: hypoxia (1% O2)
Gal1 = molecular target: T1, Gal1 (Homo sapiens, UniProt P09382); test: Binding of 488-Gal1 to HUVEC; details: lactose/sucrose 30 mM, swainsonine 3 μM, benzyl-α-GalNAc 2 mM, mAb 0.5 μM
T1 construct: made in house
Experimental: For glycophenotyping, ECs were incubated with biotinylated L-PHA, LEL, SNA, MAL II, PNA and HPA (all from Vector). Recombinant Gal1 was purified as described in Ilarregui et al. (2009) Nat Immunol 10, 981-991. For binding assays, ECs were incubated for 1 h at 4° C. with dyLight 488-labeled galectins in the absence or presence of lactose, sucrose, anti-Gal1 or isotype control mAb or following transfection with GnT5, GCNT1 or scrambled siRNA. Cells were analyzed on a FACSAria (BD Biosciences). For segregation, ECs were treated with Gal1 for 1 h, fixed and incubated for 1 h with anti-human VEGFR2 antibody (55B11; Cell Signaling) as described in Ilarregui et al. (2009) Nat Immunol 10, 981-991. Cells were analyzed on a Nikon laser confocal microscope (Eclipse E800).
DyLight 488-conjugated Gal1 (488-Gal1) was obtained using DyLight labeling kit (Thermo Scientific). Inhibitors of Jak2-STAT3 (AG490; 5 μM), Jnk-SAP (SP600125; 20 μM), p38 (SB202190; 10 μM), HIF-1α (3 μM) and O-glycosylation (benzyl-α-Ga1NAc; 2 mM) were from Calbiochem. Inhibitors of Erk1/2 (U0126; 5 μM), PI(3)K-Akt (Ly294002; 2 μM) and NF-κB (BAY 11-7082; 1 μM), ROS (N-acetyl-cysteine; NAC), N-glycosylation (swainsonine; 3 μM), lactose or sucrose (30 mM) were from Sigma. PNGase F (25 U/μg protein) was from New England Biolabs. Recombinant cytokines including IL-10 (50 ng/ml), IL-17 (5 ng/ml), TGF-β1 (3 ng/ml), IFN-γ (50 ng/ml), VEGF (20 ng/ml), bFGF (10 ng/ml) were from R&D. TNF (20 ng/ml) was from Sigma. Biotinylated lectins, including L-PHA (2 μg/ml), LEL (1 μg/ml), SNA (5 μg/ml), MAL II (10 μg/ml), PNA (10 μg/ml) and HPA (10 μg/ml) were purchased from Vector Labs and incubated in buffer containing 150 mM NaCl, 10 mM HEPES and 1% BSA (Sigma). ON-TARGETplus SMART siRNA pools against GnT5, GCNT1, VEGFR2, NRP-1, VEGF, HIF-1α and scrambled were obtained from Dharmacon. Transfections were performed by Lipofectamine-RNAiMAX (Invitrogen) following manufacturer's directions. Recombinant Gal3 and Gal8 were purified as described in Acosta-Rodriguez et al. (2004) J Immunol 172, 493-502 and Cardenas Delgado et al. (2010) FASEB J [Epub ahead of print].

HUVEC [1] = test: HUVEC proliferation ([3H]thymidine incorporation); assay type: cell-based, human; details: induced by Gal1
Experimental: (§1) HUVEC transfected or not with specific siRNA or pre-incubated with signaling pathway inhibitors were exposed to VEGF or Gal1 with or without lactose, sucrose, 8F4F8G7 mAb or control isotype (IgG1κ) or specific antibodies for VEGFR1 (AP-MAB0702; Abcam), VEGFR2 (AF357; R&D), VEGFR3 (AB89501; Abcam) or VEGF (MAB293; R&D). Cells were processed for proliferation, migration, invasion and tube formation assays. Tumor-associated blood vessels were identified by flow cytometry using Alexa Fluor 647-conjugated anti-CD34 antibody (RAM34; eBioscience).
For proliferation assays, HUVEC that were transfected or not with specific siRNA and cultured in complete M199 medium were trypsinized, harvested and seeded in 96-well microtiter plates (1×10^3 cells/well). Cells were pre-incubated for 1 hour at 37° C. with lactose, sucrose or signaling pathway inhibitors and then exposed to Gal1. After 24 hours, cells were incubated for an additional 24 hours in the presence of 0.8 μCi [^3H]-thymidine (NEN Dupont). Cells were then harvested and radioactivity was measured in a 1414 Liquid Scintillation Counter (Perkin Elmer).

HUVEC [2] = test: HUVEC migration (transwell); assay type: cell-based, human; details: induced by Gal1
Experimental: as §1
(§2) The formation of capillary-like tubular structures was assessed in Matrigel-coated plates essentially as described in Albini et al. (2001), Cancer Res 61, 8171-8178. In brief, HUVEC (3×10^4 cells/ml) transfected or not with specific siRNA or pre-incubated with signaling pathway inhibitors were seeded on Matrigel with our without Gal1 (0.1 to 3 μM) or VEGF (20 ng/ml) with or without lactose, sucrose, 8F4F8G7 mAb (0.5 μM) or isotype control (IgG1K) or blocking antibodies specific for VEGFR1 (5 μg/ml), VEGFR2 (2 μg/ml), VEGFR3 (10 μg/ml) or VEGF (10 μg/ml). Cells were incubated at 37° C. for periods ranging from 0 to 24 h and were visualized by phase-contrast microscopy. In another set of experiments, conditioned medium from hypoxic or normoxic KS cells infected or not with a retroviral vector containing Gal1 shRNA was assessed on HUVEC transfected or not with GnT5, GCNT1 or scr siRNA (100 nM). Capillary-like tubular structures were scored by counting the number of tubules (closed areas) per well in a phase-contrast microscope (Nikon E-100). For migration assays, HUVEC (4×10^4/well) transfected or not with specific siRNA were resuspended in M199 medium supplemented with 1% FCS. Cells were placed into the top chamber of the insert while the bottom well was filled with Gal1 or VEGF in the absence or presence of lactose, sucrose, 8F4F8G7 mAb or isotype control. After 24 hours, inserts were stained with crystal violet (Sigma) and analyzed in an inverted microscope. For each filter, 4 images were collected and cells were counted with the ImageJ software v1.34 (NIH).

HUVEC [3] = test: HUVEC capillary tube formation on Matrigel; assay type: cell-based, human; details: induced by Gal1
Experimental: as §1, §2

mice (Matrigel plugs) = test: In vivo vascularization of Matrigel sponges; parameters: species or system mouse; details: lactose 30 mM
Experimental: Invasion assays were performed using the BioCoat Angiogenesis system (BD Biosciences) following manufacturer's recommendations. For assessment of in vivo angiogenesis, growth factor-reduced Matrigel (BD Biosciences) was mixed with Gal1 (0.1 or 3 μM) with or without lactose (30 mM). In another set of experiments, serum-free CM from KS cells infected or not with a retroviral vector expressing Gal1 shRNA and cultured under hypoxic or normoxic conditions, were added to unpolymerized Matrigel and injected subcutaneously into the flanks of either wild-type or Lgals1^−/− (B6) mice or nude mice using a cold syringe. Matrigel embedded with buffer alone was used as negative control and a cocktail containing VEGF (50 ng/ml), heparin (50 U/ml) and TNF (2 ng/ml) was used as positive control. After 6 days, Matrigel plugs were collected by surgery, photographed and weighed. Samples were minced and diluted in water to measure hemoglobin content using the Drabkin reagent kit (Sigma). Each sample was normalized to 100 mg of recovered gel and confronted with a standard curve of mouse blood hemoglobin.

T1 sequence (P09382 whole entry): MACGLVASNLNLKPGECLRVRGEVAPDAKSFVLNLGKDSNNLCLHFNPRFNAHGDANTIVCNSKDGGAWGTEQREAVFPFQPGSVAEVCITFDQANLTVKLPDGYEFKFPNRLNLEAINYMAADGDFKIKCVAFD

`OO` [H2O2] was tested, and the “secretion of Gal1” value (KS cells; KS cells, exogenous administration) was “stimulated”.

`OC[C@H]1O[C@@](CO)(O[C@H]2O[C@H](CO)[C@@H](O)[C@H](O)[C@H]2O)[C@@H](O)[C@@H]1O` [sucrose] was tested, and the “effect on binding of Gal1 to ECs” value (Gal1) was “not”.

`Cc1ccc(S(=O)(=O)/C=C/C#N)cc1` [BAY-117802] was tested, and the IκB-α degradation (KS cells; KS cells) was “prevented” and the “hypoxia-driven Gal1 expression and secretion” value (KS cells; KS cells) was “completely eliminated”.

For `CC(=O)N[C@@H](CS)C(=O)O` [N-acetyl-cysteine], the IκB-α degradation (KS cells; KS cells) was “prevented” and the “hypoxia-driven Gal1 expression and secretion” value (KS cells; KS cells) was “strongly inhibited”.

With `OC[C@H]1O[C@@H](O[C@H]2[C@H](O)[C@@H](O)C(O)O[C@@H]2CO)[C@H](O)[C@@H](O)[C@H]1O` (some centres unmarked) [lactose, reference compound] the “effect on binding of Gal1 to ECs” value (Gal1) was “prevented”, the “effect on Gal1-induced EC proliferation” value (HUVEC [1]) was “completely prevented” and the “effect on Gal1-induced EC migration” value (HUVEC [2]) was “completely prevented”. For the same molecule, the “effect on Gal1-induced capillary tube formation” value (HUVEC [3]) was “completely prevented” and the “effect on Gal1-induced vascularization of Matrigel sponges” value (mice (Matrigel plugs)) was “specifically inhibited”.

`[Cl-].[Cl-].[Co+2]` [CoCl2] was tested, and the Gal1 expression (KS cells) was “no effect”.

With `CC(=O)N[C@H]1[C@@H](OCc2ccccc2)O[C@H](CO)[C@H](O)[C@@H]1O` [benzyl-α-Ga1NAc] the “effect on binding of Gal1 to ECs” value (Gal1) was “only partially inhibitory”.

`O[C@H]1[C@H]2[C@H](O)CCCN2C[C@H]1O` [swainsonine] was tested, and the “effect on binding of Gal1 to ECs” value (Gal1) was “almost completely abrogated”.
